# Source: patent publication US20020122768A1, “Stable radiopharmaceutical compositions and methods for preparation thereof” (priority 2000, published 2002)
# Marks after values point to notes of the source that are not given here.
# What was measured:
# Type in all cases: physicochemical
# [1] = Solution stability of ^90Y-A at room temperature, RCP by radio-HPLC; conditions: room temperature; for RCP (%) t = 0 h / RCP (%) t = 24 h / RCP (%) t = 48 h / RCP (%) t = 120 h / RCP (%) t = 144 h / RCP (%) t = 72 h / RCP (%) t = 148 h: ^90Y-A (~20 mCi); for RCP (%) change: ^90Y-A, t = 0 h to last time point
# Protocol: The advantage of using HPLC is that radio-impurities caused by radiolytic degradation can be separated from the radiopharmaceutical under optimized chromatographic conditions.
# (§1) The initial RCP of a radiopharmaceutical is largely dependent on radiolabeling conditions such as pH, heating temperature and time. Once a radiopharmaceutical is prepared in high yield, the stability of the radiopharmaceutical composition is measured by the` RCP change of the radiopharmaceutical over a certain period of time.
# Analytical Methods. HPLC method 1 used a HP-1100 HPLC system with a UV/visible detector (λ=220 nm), an IN-US radio-detector, and a Zorbax C18 column (4.6 mm×250 mm, 80 Å pore size).
# The ITLC method used Gelman Sciences silica-gel ITLC paper strips and 1:1 mixture of acetone and saline as eluant.
# (§2) The reaction mixture was heated at 100° C. for 10 min. A sample of the resulting solution was first diluted 20-fold with 2 mM DTPA solution (pH=5), and was then analyzed by HPLC (Method 1, injection volume=1-2 μL) and ITLC. […] The resulting solution was kept at room temperature for 6 days.
# as §2, §2
# The reaction mixture was heated at 100° C. for 10 min. A sample of the resulting solution was first diluted 20-fold with 2 mM DTPA solution (pH=5), and was then analyzed by HPLC (Method 1, injection volume 1-2 μL) and ITLC. […] The resulting solution was kept at room temperature for 7 days.
# (§3) The reaction mixture was heated at 100° C. for 10 min. A sample of the resulting solution was first diluted 20-fold with 2 mM DTPA solution (pH=5), and was then analyzed by HPLC (Method 1, injection volume=1-2 μL) and ITLC. […] The resulting solution was kept at room temperature for 7 days.
# as §3, §3
# [2] = Solution stability of ^90Y-A at −78° C., RCP by radio-HPLC; conditions: for RCP (%) change: t = 0 h to 72 h
# Protocol: (§4) The integrity of a radiopharmaceutical is measured by the radiochemical purity (RCP) of the radiolabeled compound using ITLC or more preferably HPLC. The advantage of using HPLC is that radio-impurities caused by radiolytic degradation can be separated from the radiopharmaceutical under optimized chromatographic conditions. […] The radiopharmaceutical compositions of this invention are effective in maintaining the long-term stability of samples that have been frozen, thawed, and re-tested periodically for 7 days.
# as §1, with “of time. For comparison purposes, sodium gentisate or sodium ascorbate was often used as the reference since they have been used in various radiopharmaceutical formulations.” for “of time.”
# Analytical Methods. HPLC method 1 used a HP-1100 HPLC system with a UV/visible detector (λ=220 nm), an IN-US radio-detector, and a Zorbax C18 column (4.6 mm×250 mm, 80 Å pore size). The flow rate was 1 mL/min with the mobile phase being isocratic from 0 to 18 min using 87% solvent A (0.025 M ammonium acetate buffer, pH 6.8) and 13% solvent B (acetonitrile), followed by an isocratic wash using 40% of solvent A and 60% solvent B from 19 to 25 min.
# The ITLC method used Gelman Sciences silica-gel ITLC paper strips and 1:1 mixture of acetone and saline as eluant. By this method, the radiolabeled compounds migrate to the solvent front while [^90Y]/^177Lu]colloid and [^90Y]/^177Lu]acetate remain at the origin.
# ^90Y-A was prepared using the procedure described in example 4. The resulting solution was the kept in a dry-ice box (−78° C.) for 3 days. Samples were analyzed at t=0, 24, 48, and 72 h.
# To a lead-shielded clean 5 mL vial containing 100 μg of COMPOUND A and 2 mg of 3,4,5-trihydroxybenzoic acid (3,4,5-THBA) dissolved in 0.5 mL of 0.5 M ammonium acetate buffer (pH=8.0) was added 20 μL Of ^90YCl3 solution (˜20 mCi) in 0.05 N HCl. The reaction mixture was heated at 100° C. for 5 min. After cooling to room temperature, 0.5 mL of 3,4,5-THBA solution (20 mg/mL) in 0.5 M ammonium acetate buffer (pH=8.0) was added to the solution above. A sample of the resulting mixture was then diluted 20-fold with GA solution (10 mg/mL, pH=7.4), and analyzed by HPLC (Method 1, injection volume=1 μL) and ITLC. […] The resulting mixture was kept at −78° C. for 3 days. Samples were analyzed at t=0, 1, 2, and 3 days.
# (§5) Synthesis of ^90Y-A was carried out according to the procedure described in example 12. After cooling to room temperature, 0.5 mL of 2,3,4-THBA solution (20 mg/mL) in 0.5 M ammonium acetate buffer (pH=8.0) was added to the solution containing ^90Y-A. The resulting mixture was kept at -78 °C for 3 days. Samples were analyzed at t=0, 1, 2, and 3 days.
# as §5, with “DSA” for “2,3,4-THBA”, “−78° C.” for “-78 °C”
# as §5, with “mL of HABA solution (20” for “mL of 2,3,4-THBA solution (20”, “kept at −78° C. for 3” for “kept at -78 °C for 3”, “3 days. […]” for “3 days.”
# To a lead-shielded clean 30 mL vial containing 1000 μg of COMPOUND A and 100 mg of sodium gentisate (GA) dissolved in 5 mL of 0.5 M ammonium acetate buffer (pH=7.5) was added ˜250 μL of ^90YCl3 solution (˜200 mCi) in 0.05 N HCl. The reaction mixture was heated at 100° C. for 15 min. […]
# [3] = Solution stability of ^90Y-B at −78° C., RCP by radio-HPLC; conditions: ^90Y-B prepared with GA
# Protocol: as §4
# as §1, with “of time. For comparison purposes, sodium gentisate or sodium ascorbate was often used as the reference since they have been used in various radiopharmaceutical formulations.” for “of time.”
# HPLC method 2 used a HP-1100 HPLC system with a UV/visible detector (λ=220 nm), an IN-US radio-detector, and a Zorbax C18 column (4.6 mm×250 mm, 80 Å pore size). The flow rate was 1 mL/min with a gradient mobile phase starting from 92% solvent A (0.025 M ammonium acetate buffer, pH 6.8) and 8% solvent B (acetonitrile) at 0 min to 90% solvent A and 10% solvent B at 18 min, followed by an isocratic wash using 40% of solvent A and 60% solvent B from 19 to 25 min.
# The ITLC method used Gelman Sciences silica-gel ITLC paper strips and 1:1 mixture of acetone and saline as eluant. By this method, the radiolabeled compounds migrate to the solvent front while [^90Y]/^177Lu]colloid and [^90Y]/^177Lu]acetate remain at the origin. […]
# The 0.5 M ammonium acetate buffer (pH 8.0) was first degassed under vacuum for 1-2 min. COMPOUND B and gentisic acid (sodium salt, GA) were dissolved in the degassed buffer to give a concentration of 100 μg/mL for COMPOUND B and 20 mg/mL for GA. The resulting solution was immediately degassed under vacuum for another 1-2 min. To a clean sealed 5 mL vial was added 1.0 mL of the degassed 0.5 M ammonium acetate buffer (pH 8.0) containing 100 μg COMPOUND B and 10 mg GA. The solution was degassed again under vacuum. Upon addition of ˜20 μL of ^90YCl3 solution (˜20 mCi) in 0.05 N HCl, the reaction mixture was heated at 100° C. for 5 min. After cooling to room temperature, a sample of the resulting solution was diluted 20-fold with saline containing gentisate (10 mg/mL), and was then analyzed by HPLC (Method 2, injection volume=1-2 μL) and ITLC. […] To the solution above was added 0.5 mL of sodium ascorbate solution (40 mg/mL in 0.5 M ammonium acetate buffer, pH=7.4). The resulting mixture was then kept in a dry-ice box (−78° C.) for 7 days. Samples were analyzed at t=0, 3 and 7 days.
# The 0.5 M ammonium acetate buffer (pH 8.0) was first degassed under vacuum for 1-2 min. COMPOUND B and gentisic acid (sodium salt, GA) were dissolved in the degassed buffer to give a concentration of 100 μg/mL for COMPOUND B and 20 mg/mL for GA. The resulting solution was immediately degassed under vacuum for another 1-2 min. To a clean sealed 5 mL vial was added 1.0 mL of the degassed 0.5 M ammonium acetate buffer (pH 8.0) containing 100 μg COMPOUND B and 10 mg GA. The solution was degassed again under vacuum. Upon addition of ˜20 μL of ^90YCl3 solution (˜20 mCi) in 0.05 N HCl, the reaction mixture was heated at 100° C. for 5 min. After cooling to room temperature, a sample of the resulting solution was diluted 20-fold with saline containing gentisate (10 mg/mL), and was then analyzed by HPLC (Method 2, injection volume=1-2 μL) and ITLC. […] To the solution above was added 0.5 mL of 2,3,4-trihydroxybenzoic acid solution (20 mg/mL in 0.5 M ammonium acetate buffer, pH=6.5). The resulting mixture was then kept in a dry-ice box (−78° C.) for 7 days. Samples were analyzed at t=0, 3 and 7 days. […]
# [4] = ^90Y-A, 10 mg stabilizer, dry-ice box (−78° C.)
# [5] = ^90Y-A, 10 mg stabilizer, −78° C.
# [6] = ^90Y-A prepared using 2 mg 3,4,5-THBA, second stabilizer (0.5 mL of 20 mg/mL) added after radiolabeling, −78° C.
# [7] = degassed, second stabilizer (20 mg AA, 20 mg DSA, 10 mg 2,3,4-THBA, 10 mg HABA) added post-labeling
Structure (SMILES),RCP (%) t = 0 h ([1]; 2 mg stabilizer),RCP (%) t = 24 h ([1]; 2 mg stabilizer),RCP (%) t = 48 h ([1]; 2 mg stabilizer),RCP (%) t = 120 h ([1]; 2 mg stabilizer),RCP (%) t = 144 h ([1]; 2 mg stabilizer),RCP (%) t = 0 h ([1]; 10 mg stabilizer),RCP (%) t = 24 h ([1]; 10 mg stabilizer),RCP (%) t = 72 h ([1]; 10 mg stabilizer),RCP (%) t = 148 h ([1]; 10 mg stabilizer),RCP (%) change ([1]; 10 mg stabilizer),"RCP (%) t = 0 h [2, 4]","RCP (%) t = 24 h [2, 4]","RCP (%) t = 48 h [2, 4]","RCP (%) t = 72 h [2, 4]","RCP (%) change [2, 5]",further results
"O=Cc1cc(O)c(O)c(O)c1 [3,4,5-THBAD, 3,4,5-trihydroxybenzaldehyde]",95.5%,92.8%,87.4%,84.9%,80.7%,88.1* %,82.3%,77.3%,68.4%,19.7%,88.2%,86.4%,87.3%,87.4%,0.8%,
"O=C([O-])c1cc(O)ccc1O.[Na+] [GA, sodium gentisate, reference compound]",94.6%,84.5%,80.7%,71.2%,69.7%,96.3%,92.6%,83.8%,77.3%,19%,96.4%,96.7%,95.4%,94.6%,1.8%,
"Nc1ccc(C(=O)O)cc1O [HABA, 3-hydroxy-4-aminobenzoic acid]",,,,,,,,,,,,,,,,"RCP (%) t = 0 h [2, 6]: 98.5%; RCP (%) t = 24 h [2, 6]: 98.3%; RCP (%) t = 48 h [2, 6]: 98.7%; RCP (%) t = 72 h [2, 6]: 98.1%; RCP (%) change ([2]; ^90Y-A prepared using 2 mg 3,4,5-THBA, second stabilizer added after radiolabeling, −78° C.): 0.4%; RCP (%) t = 0 [3, 7]: 94.8%; RCP (%) t = 3 days [3, 7]: 94.5%; RCP (%) t = 7 days [3, 7]: 94.0%; RCP (%) change ([3]; second stabilizer added post-labeling, t = 0 to 7 days): 0.8%"
